Source: patent US11820766B2, “Monoacylglycerol lipase modulators” (Janssen Pharmaceutica NV, priority 2018, dated 2023)

These compounds were tested against T1, human MGL from HeLa cells (Homo sapiens, UniProt Q99685) (assay: In vitro MGL activity assay: [glycerol-1,3-3H]-oleyl glycerol cleavage by MGL from HeLa cells). Details: 300 nM [Glycerol-1,3-3H]-oleyl glycerol, one hour.
T1 construct: combining endogenously expressed MGL from HeLa cells with test compounds; endogenous in cells; host or cells: HeLa cells / cell homogenates
T1 sequence (Q99685 1-303): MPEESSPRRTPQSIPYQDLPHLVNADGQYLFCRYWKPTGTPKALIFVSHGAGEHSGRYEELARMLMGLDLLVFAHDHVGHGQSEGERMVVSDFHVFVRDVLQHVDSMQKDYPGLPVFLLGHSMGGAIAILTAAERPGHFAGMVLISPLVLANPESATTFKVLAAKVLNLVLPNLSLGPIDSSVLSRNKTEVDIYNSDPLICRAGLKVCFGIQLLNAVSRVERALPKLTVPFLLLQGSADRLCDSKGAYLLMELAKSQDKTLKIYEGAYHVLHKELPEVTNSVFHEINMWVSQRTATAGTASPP
Assay type: biochemical
Source text: MGL is the predominant hydrolase in HeLa cells/cell homogenates.

Compound | IC50 [nM]
C[C@H]1c2nn(C)c(-c3cc(F)c(F)c(F)c3)c2CCN1C(=O)c1nccc2ncncc12 [Example 484, [(7S)-2,7-Dimethyl-3-(3,4,5-trifluorophenyl)-5,7-dihydro-4H-pyrazolo[3,4-c]pyridin-6-yl]-pyrido[4,3-d]pyrimidin-5-yl-methanone] | 62.2
C[C@H]1c2nn(C)c(-c3cc(F)c(F)c(F)c3)c2CCN1C(=O)c1ccnc2cccnc12 [Example 485, [(7S)-2,7-Dimethyl-3-(3,4,5-trifluorophenyl)-5,7-dihydro-4H-pyrazolo[3,4-c]pyridin-6-yl]-(1,5-naphthyridin-4-yl)methanone] | 33.2
C[C@H]1c2nn(C)c(-c3cc(F)c(F)c(F)c3)c2CCN1C(=O)c1nccc2ncccc12 [Example 486] | 13.7
Cc1ccc2c(C(=O)N3CCc4c(nn(C)c4-c4cc(F)c(F)c(F)c4)[C@@H]3C)nccc2n1 [Example 487, [(7S)-2,7-Dimethyl-3-(3,4,5-trifluorophenyl)-5,7-dihydro-4H-pyrazolo[3,4-c]pyridin-6-yl]-(2-methyl-1,6-naphthyridin-5-yl)methanone] | 35.3
C[C@H]1c2nn(C)c(-c3cc(F)c(F)c(F)c3)c2CCN1C(=O)c1cnc2ccncc2c1 [Example 488, [(7S)-2,7-Dimethyl-3-(3,4,5-trifluorophenyl)-5,7-dihydro-4H-pyrazolo[3,4-c]pyridin-6-yl]-(1,6-naphthyridin-3-yl)methanone] | 227
C[C@H]1c2nn(C)c(-c3cc(F)c(F)c(F)c3)c2CCN1C(=O)c1cncc2ncccc12 [Example 489] | 30
C[C@H]1c2nn(C)c(-c3cc(F)c(F)c(F)c3)c2CCN1C(=O)c1cnc2ncccc2c1 [Example 490, [(7S)-2,7-Dimethyl-3-(3,4,5-trifluorophenyl)-5,7-dihydro-4H-pyrazolo[3,4-c]pyridin-6-yl]-(1,8-naphthyridin-3-yl)methanone] | 226
Cc1ccccc1-c1c2c(nn1C)[C@H](C)N(C(=O)c1ccc3ncccc3c1)CC2 [Example 492, [(7S)-2,7-Dimethyl-3-(o-tolyl)-5,7-dihydro-4H-pyrazolo[3,4-c]pyridin-6-yl]-(6-quinolyl)methanone] | 220
C[C@H]1c2nn(C)c(-c3ccc(C(F)(F)F)cc3)c2CCN1C(=O)c1ccc2ncccc2c1 [Example 494, [(7S)-2,7-Dimethyl-3-[4-(trifluoromethyl)phenyl]-5,7-dihydro-4H-pyrazolo[3,4-c]pyridin-6-yl]-(6-quinolyl)methanone] | 54.9
COc1cccc(-c2c3c(nn2C)[C@H](C)N(C(=O)c2ccc4ncccc4c2)CC3)c1 [Example 495, [(7S)-3-(3-Methoxyphenyl)-2,7-dimethyl-5,7-dihydro-4H-pyrazolo[3,4-c]pyridin-6-yl]-(6-quinolyl)methanone] | 47.1
COc1ccccc1-c1c2c(nn1C)[C@H](C)N(C(=O)c1ccc3ncccc3c1)CC2 [Example 496, [(7S)-3-(2-Methoxyphenyl)-2,7-dimethyl-5,7-dihydro-4H-pyrazolo[3,4-c]pyridin-6-yl]-(6-quinolyl)methanone] | 54.4
CCOc1ccc(-c2c3c(nn2C)[C@H](C)N(C(=O)c2ccc4ncccc4c2)CC3)cc1 [Example 497, [(7S)-3-(4-Ethoxyphenyl)-2,7-dimethyl-5,7-dihydro-4H-pyrazolo[3,4-c]pyridin-6-yl]-(6-quinolyl)methanone] | 313
C[C@H]1c2nn(C)c(-c3cccc(OC(F)F)c3)c2CCN1C(=O)c1ccc2ncccc2c1 [Example 499, [(7S)-3-[3-(Difluoromethoxy)phenyl]-2,7-dimethyl-5,7-dihydro-4H-pyrazolo[3,4-c]pyridin-6-yl]-(6-quinolyl)methanone] | 44.4
C[C@H]1c2nn(C)c(-c3ccc(F)cc3F)c2CCN1C(=O)c1ccc2ncccc2c1 [Example 502, [(7S)-3-(2,4-Difluorophenyl)-2,7-dimethyl-5,7-dihydro-4H-pyrazolo[3,4-c]pyridin-6-yl]-(6-quinolyl)methanone] | 106
C[C@H]1c2nn(C)c(-c3cccc(F)c3F)c2CCN1C(=O)c1ccc2ncccc2c1 [Example 503, [(7S)-3-(2,3-Difluorophenyl)-2,7-dimethyl-5,7-dihydro-4H-pyrazolo[3,4-c]pyridin-6-yl]-(6-quinolyl)methanone] | 22
C[C@H]1c2nn(C)c(-c3ccc(Cl)c(F)c3)c2CCN1C(=O)c1ccc2ncccc2c1 [Example 504, [(7S)-3-(4-Chloro-3-fluoro-phenyl)-2,7-dimethyl-5,7-dihydro-4H-pyrazolo[3,4-c]pyridin-6-yl]-(6-quinolyl)methanone] | 25.3
C[C@H]1c2nn(C)c(-c3ccc(F)c(Cl)c3)c2CCN1C(=O)c1ccc2ncccc2c1 [Example 505, [(7S)-3-(3-Chloro-4-fluoro-phenyl)-2,7-dimethyl-5,7-dihydro-4H-pyrazolo[3,4-c]pyridin-6-yl]-(6-quinolyl)methanone] | 7.38
C[C@H]1c2nn(C)c(-c3ccc(F)cc3Cl)c2CCN1C(=O)c1ccc2ncccc2c1 [Example 506, [(7S)-3-(2-Chloro-4-fluoro-phenyl)-2,7-dimethyl-5,7-dihydro-4H-pyrazolo[3,4-c]pyridin-6-yl]-(6-quinolyl)methanone] | 347
C[C@H]1c2nn(C)c(-c3ccc(Cl)c(Cl)c3)c2CCN1C(=O)c1ccc2ncccc2c1 [Example 507, [(7S)-3-(3,4-Dichlorophenyl)-2,7-dimethyl-5,7-dihydro-4H-pyrazolo[3,4-c]pyridin-6-yl]-(6-quinolyl)methanone] | 15.2
Cc1cc(F)cc(-c2c3c(nn2C)[C@H](C)N(C(=O)c2ccc4ncccc4c2)CC3)c1 [Example 511, [(7S)-3-(3-Fluoro-5-methyl-phenyl)-2,7-dimethyl-5,7-dihydro-4H-pyrazolo[3,4-c]pyridin-6-yl]-(6-quinolyl)methanone] | 6.58
COc1cc(Cl)cc(-c2c3c(nn2C)[C@H](C)N(C(=O)c2ccc4ncccc4c2)CC3)c1 [Example 513, [(7S)-3-(3-Chloro-5-methoxy-phenyl)-2,7-dimethyl-5,7-dihydro-4H-pyrazolo[3,4-c]pyridin-6-yl]-(6-quinolyl)methanone] | 10.5
C[C@H]1c2nn(C)c(-c3cc(F)c(F)c(F)c3)c2CCN1C(=O)c1ccc2c(ccc[n+]2[O-])c1 [Example 516, [(7S)-2,7-Dimethyl-3-(3,4,5-trifluorophenyl)-5,7-dihydro-4H-pyrazolo[3,4-c]pyridin-6-yl]-(1-oxidoquinolin-1-ium-6-yl)methanone] | 141

Continued, values first:

IC50 [nM] | Compound
6.22 | C[C@H]1c2nn(C)c(-c3cc(F)c(F)c(F)c3)c2CCN1C(=O)c1ncnc2ccccc12 [Example 482, [(7S)-2,7-Dimethyl-3-(3,4,5-trifluorophenyl)-5,7-dihydro-4H-pyrazolo[3,4-c]pyridin-6-yl]-quinazolin-4-yl-methanone]
10.2 | [2H]c1cnc2cc(C(=O)N3CCc4c(nn(C)c4-c4cc(F)c(F)c(F)c4)[C@@H]3C)ccc2n1 [Example 483, (2-Deuterioquinoxalin-6-yl)-[(7S)-2,7-dimethyl-3-(3,4,5-trifluorophenyl)-5,7-dihydro-4H-pyrazolo[3,4-c]pyridin-6-yl]methanone]
141 | C[C@H]1c2nn(C)c(-c3cc(F)c(F)c(F)c3)c2CCN1C(=O)c1ccnc2ncccc12 [Example 491, [(7S)-2,7-Dimethyl-3-(3,4,5-trifluorophenyl)-5,7-dihydro-4H-pyrazolo[3,4-c]pyridin-6-yl]-(1,8-naphthyridin-4-yl)methanone]
2360 | C[C@H]1c2nn(C)c(-c3ccccc3C(F)(F)F)c2CCN1C(=O)c1ccc2ncccc2c1 [Example 493, [(7S)-2,7-Dimethyl-3-[2-(trifluoromethyl)phenyl]-5,7-dihydro-4H-pyrazolo[3,4-c]pyridin-6-yl]-(6-quinolyl)methanone]
361 | CC(C)Oc1cccc(-c2c3c(nn2C)[C@H](C)N(C(=O)c2ccc4ncccc4c2)CC3)c1 [Example 498, [(7S)-3-(3-Isopropoxyphenyl)-2,7-dimethyl-5,7-dihydro-4H-pyrazolo[3,4-c]pyridin-6-yl]-(6-quinolyl)methanone]
75.7 | C[C@H]1c2nn(C)c(-c3ccc(OC(F)(F)F)cc3)c2CCN1C(=O)c1ccc2ncccc2c1 [Example 500, [(7S)-2,7-Dimethyl-3-[4-(trifluoromethoxy)phenyl]-5,7-dihydro-4H-pyrazolo[3,4-c]pyridin-6-yl]-(6-quinolyl)methanone]
58.6 | C[C@H]1c2nn(C)c(-c3cccc(OC(F)(F)F)c3)c2CCN1C(=O)c1ccc2ncccc2c1 [Example 501, [(7S)-2,7-Dimethyl-3-[3-(trifluoromethoxy)phenyl]-5,7-dihydro-4H-pyrazolo[3,4-c]pyridin-6-yl]-(6-quinolyl)methanone]
70 | COc1ccc(F)cc1-c1c2c(nn1C)[C@H](C)N(C(=O)c1ccc3ncccc3c1)CC2 [Example 508, [(7S)-3-(5-Fluoro-2-methoxy-phenyl)-2,7-dimethyl-5,7-dihydro-4H-pyrazolo[3,4-c]pyridin-6-yl]-(6-quinolyl)methanone]
185 | COc1ccc(-c2c3c(nn2C)[C@H](C)N(C(=O)c2ccc4ncccc4c2)CC3)cc1C [Example 512, [(7S)-3-(4-Methoxy-3-methyl-phenyl)-2,7-dimethyl-5,7-dihydro-4H-pyrazolo[3,4-c]pyridin-6-yl]-(6-quinolyl)methanone]
52.2 | C[C@H]1c2nn(C)c(-c3ccc(F)c(F)c3F)c2CCN1C(=O)c1ccc2ncccc2c1 [Example 515, [(7S)-2,7-Dimethyl-3-(2,3,4-trifluorophenyl)-5,7-dihydro-4H-pyrazolo[3,4-c]pyridin-6-yl]-(6-quinolyl)methanone]
